Among the data in US7767625B2 (dated 2010) are melting point values, retold here.

Usually melting point stands for the temperature, or range, at which the solid turns liquid.

Take `C=Cc1c(NC(=O)c2cn(C)nc2C(F)(F)F)cccc1C(C)(C)C`: the melting point was in the range of 118 to 119 °C.
